Several values for one entry are separate records, joined by “and”; a condition that tells them apart may be missing. Equal values may be shown once.
Target: Nonstructural protein 3 (Zika virus, UniProt A0A024AXB9)
Experiment: Functional biochemical assay to identify treatments for viral infectious disease that targets Zika NS2B-NS3 protease. Utilizing a direct enzyme activity measurement method, reading the fluorescence intensity is used to characterize the relative potency of inhibitors as IC50.
Set-up: species or system PRVABC59

Nonstructural protein 3, sequence (A0A024AXB9 whole entry): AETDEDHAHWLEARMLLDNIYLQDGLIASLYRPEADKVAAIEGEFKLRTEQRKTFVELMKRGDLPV

Row | Compound | IC50
1 | OC1(c2ccccc2)CCN(Cc2c[nH]c3ccccc23)CC1 | > 99.5 µM
2 | CCCC[C@H](NC(C)=O)C(=O)N[C@H](C(=O)NCc1ccc(C(N)=O)cc1)c1ccc(OCc2ccccc2)cc1 | > 99.5 µM
3 | Cc1nc(C2CCN(Cc3c[nH]c4ccccc34)CC2)sc1C(=O)O | 99.3 µM
4 | CCOc1cc(COc2cccnc2F)nc(N2CCNCC2)n1 | > 99.5 µM
5 | C[C@@H](NC(=O)c1cc(Cl)ccc1NS(=O)(=O)c1ccc(Oc2ccccc2Cl)cc1)[C@H]1CCCO1 | > 99.5 µM
6 | CCc1cc(C)nc(C2CCN(Cc3c[nH]c4ccccc34)CC2)n1 | 59.4 µM
7 | O=C(c1cc(Cl)ccc1NS(=O)(=O)c1ccc(Oc2ccccc2Cl)cc1)N1CC[C@H](CO)C1 | > 99.5 µM
8 | Cn1nccc1C1CCN(Cc2c[nH]c3ccccc23)CC1 | > 99.5 µM
9 | O=S(=O)(Nc1ccc(Oc2ccccc2Cl)cc1)c1c[nH]c2ccc(Cl)cc12 | > 99.5 µM
10 | Cc1ccc(CNC(=O)c2cc(Cl)ccc2NS(=O)(=O)c2ccc(Oc3ccccc3Cl)cc2)s1 | > 99.5 µM
11 | NCc1cccc(NC(=O)[C@H]2Cc3ccccc3N2C(=O)OCc2ccccc2)c1 | > 99.5 µM
12 | CC[C@H]1CCN(C(=O)c2cc(Cl)ccc2NS(=O)(=O)c2ccc(Oc3ccccc3Cl)cc2)C1 | > 99.5 µM
13 | CCCC[C@@H](NC(=O)OC(C)(C)C)C(=O)N[C@@H](C(=O)NCc1ccc(CN)cc1)c1ccc(OCc2ccccc2)cc1 | 25.6 µM
14 | NCc1ccc(C[C@H](NC(=O)c2ccccc2)C(=O)Nc2cccc(CN)c2)cc1 | > 99.5 µM
15 | O=C(O)c1ccc(C2CCN(Cc3c[nH]c4ccccc34)CC2)cc1 | > 99.5 µM
16 | CNc1cc(COc2cccnc2F)nc(N2CCNCC2)n1 | > 99.5 µM
17 | CCC1CCN(Cc2c[nH]c3ccccc23)CC1 | > 99.5 µM
18 | c1ccc(COC2CCN(Cc3c[nH]c4ccccc34)CC2)cc1 | > 99.5 µM
19 | CCc1ccc(NS(=O)(=O)c2ccc(Oc3ccccc3Cl)cc2)c(C(=O)NC)c1 | > 99.5 µM
20 | CC(C)(C)OC(=O)Cn1ccnc(N2CC[C@@H](CO)C2)c1=O | > 99.5 µM
21 | C[C@H]1COCCN1C(=O)c1cc(Cl)ccc1NS(=O)(=O)c1ccc(Oc2ccccc2Cl)cc1 | > 99.5 µM
22 | NC[C@H]1C[C@H](NC(=O)[C@@H](NC(=O)OCc2ccccc2)c2ccc(OCc3ccccc3)cc2)C1 | > 99.5 µM
23 | CNC(=O)c1cc(Cl)c(OC)cc1NS(=O)(=O)c1ccc(Oc2ccccc2Cl)cc1 | 53.4 µM
24 | CCCC[C@H](N)C(=O)N[C@@H](C(=O)NCc1ccc(C(N)=O)cc1)c1ccc(OCc2ccccc2)cc1 | > 99.5 µM
25 | COC[C@@H](C)CNC(=O)c1cc(Cl)ccc1NS(=O)(=O)c1ccc(Oc2ccccc2Cl)cc1 | > 99.5 µM
26 | NC[C@H]1C[C@@H](NC(=O)[C@@H](NC(=O)OCc2ccccc2)c2ccc(OCc3ccccc3)cc2)C1 | 85.2 µM

Row | Compound | IC50
27 | O=C(NC[C@H]1CCCO1)c1cc(Cl)ccc1NS(=O)(=O)c1ccc(Oc2ccccc2Cl)cc1 | > 99.5 µM
28 | O[C@H]1CCCN(Cc2c[nH]c3ccccc23)C1 | > 99.5 µM
29 | CC(C)Oc1cc(COc2cccnc2F)nc(N2CCNCC2)n1 | > 99.5 µM
30 | NCc1cccc(NC(=O)c2cccc(NC(=O)OCc3ccccc3)n2)c1 | > 99.5 µM
31 | c1ccc2c(CN3CCC(c4ccn[nH]4)CC3)c[nH]c2c1 | 66.2 µM
32 | CCCN(C)C(=O)c1cc(Cl)ccc1NS(=O)(=O)c1ccc(Oc2ccccc2Cl)cc1 | > 99.5 µM
33 | OCc1cc(C2CCN(Cc3c[nH]c4ccccc34)CC2)no1 | 54.9 µM
34 | CCCCCNC(=O)c1cc(Cl)ccc1NS(=O)(=O)c1ccc(Oc2ccccc2Cl)cc1 | > 99.5 µM
35 | N[C@H]1CC[C@H](NC(=O)[C@@H](NC(=O)OCc2ccccc2)c2ccc(OCc3ccccc3)cc2)C1 | > 99.5 µM
36 | O=C(N[C@@H](C(=O)NC1CNC1)c1ccc(OCc2ccccc2)cc1)OCc1ccccc1 | > 99.5 µM
37 | NC[C@H]1CCN1C(=O)[C@@H](NC(=O)OCc1ccccc1)c1ccc(OCc2ccccc2)cc1 | > 99.5 µM
38 | CC(C)Oc1ccc(S(=O)(=O)Nc2ccc(Cl)cc2C(=O)O)cc1 | > 99.5 µM
39 | NCc1cccc(NC(=O)[C@@H](NC(=O)OCc2ccccc2)C2CCCCC2)c1 | > 99.5 µM
40 | NCc1cccc(NC(=O)[C@@H](NC(=O)OCc2ccccc2)c2ccc(F)c(F)c2)c1 | > 99.5 µM
41 | OCCOc1cc(COc2cccnc2F)nc(N2CCNCC2)n1 | > 99.5 µM
42 | O=S(=O)(c1c[nH]c2ccccc12)N1CCC(c2cnc3ccc[nH]c2-3)CC1 | > 99.5 µM
43 | NCc1cccc(NC(=O)[C@@H](NC(=O)OCc2ccccc2)c2ccc(F)cc2F)c1 | > 99.5 µM
44 | CCn1c(=O)c(N2CC[C@@H](CO)C2)nc2ccccc21 | > 99.5 µM
45 | CC(C)c1ccc([C@@H](NC(=O)OCc2ccccc2)C(=O)Nc2cccc(CN)c2)cc1 | 87.7 µM
46 | c1ccc2c(CN3CCC(c4c[nH]c5cccnc45)CC3)n[nH]c2c1 | 42.9 µM
47 | O=C(N[C@@H](C(=O)NC1CCNCC1)c1ccc(OCc2ccccc2)cc1)OCc1ccccc1 | > 99.5 µM
48 | C[C@@H](N)c1cccc(NC(=O)[C@@H](NC(=O)OCc2ccccc2)c2ccc(OCc3ccccc3)cc2)c1 | 33.6 µM
49 | c1cnc(C2CCN(Cc3c[nH]c4ccccc34)CC2)nc1 | 50.6 µM
50 | COc1cccc(C2CCN(Cc3c[nH]c4ccccc34)CC2)c1 | 64.3 µM
51 | C#CCn1ccnc(N2CC[C@H](CO)C2)c1=O | > 99.5 µM
52 | c1ccc2c(CN3CCC(c4cscn4)CC3)c[nH]c2c1 | 22.1 µM

Row | Compound | IC50
53 | O[C@@H]1CN(Cc2c[nH]c3ccccc23)CC[C@@H]1c1ccccc1 | 47.4 µM
54 | c1cncc(C2CCN(Cc3c[nH]c4ccccc34)CC2)c1 | 32.6 µM
55 | NCc1cccc(NC(=O)[C@H]2c3ccccc3CCN2C(=O)OCc2ccccc2)c1 | > 99.5 µM
56 | c1ccc(-c2csc(C3CCN(Cc4c[nH]c5ccccc45)CC3)n2)cc1 | 22.4 µM
57 | NC(=O)[C@H]1CCCN(Cc2c[nH]c3ccccc23)C1 | > 99.5 µM
58 | NCc1cccc(NC(=O)[C@@H](NC(=O)OCc2ccccc2)C(C2CCC2)C2CCC2)c1 | 66.3 µM and 82.1 µM
59 | c1cc(CN2CCC(c3c[nH]c4cccnc34)CC2)c2[nH]ncc2c1 | > 99.5 µM
60 | c1ccc(C2CCN(Cc3c[nH]c4ccccc34)CC2)nc1 | 34.7 µM
61 | N[C@@H]1CC[C@H](NC(=O)[C@@H](NC(=O)OCc2ccccc2)c2ccc(OCc3ccccc3)cc2)C1 | > 99.5 µM
62 | NCc1cccc(NC(=O)[C@H]2CCCN(C(=O)OCc3ccccc3)C2)c1 | > 99.5 µM
63 | CCn1ccc2cc(CN3CCC(c4c[nH]c5cccnc45)CC3)ccc21 | > 99.5 µM
64 | NCc1cccc(CNC(=O)[C@@H](NC(=O)OCc2ccccc2)c2ccc(OCc3ccccc3)cc2)c1 | 19 µM and 11.6 µM
65 | OC1CCN(Cc2c[nH]c3ccccc23)CC1 | > 99.5 µM
66 | O=C(Nc1ccc(Cl)cc1C(=O)O)c1ccc(Oc2ccccc2Cl)cc1 | > 99.5 µM
67 | c1ccc2c(CN3CCC(c4cnco4)CC3)c[nH]c2c1 | 56.1 µM
68 | c1ccc2sc(C3CCN(Cc4c[nH]c5ccccc45)CC3)nc2c1 | 9.89 µM
69 | Fc1ncccc1OCc1cc(Cl)nc(N2CCNCC2)n1 | > 99.5 µM
70 | NCc1cccc(NC(=O)[C@@H](NC(=O)OCc2ccccc2)c2cc(F)cc(F)c2)c1 | > 99.5 µM
71 | c1cnc2c(C3CCN(Cc4c[nH]c5ncccc45)CC3)c[nH]c2c1 | > 99.5 µM
72 | CC(=O)N[C@@H](C(=O)Nc1cccc(CN)c1)c1ccc(OCc2ccccc2)cc1 | > 99.5 µM
73 | NCc1cccc(NC(=O)[C@H]2c3ccc(OCc4ccccc4)cc3CCN2C(=O)OCc2ccccc2)c1 | 17.3 µM
74 | CC(C)(C)Oc1ccc(S(=O)(=O)Nc2ccc(Cl)cc2C(=O)O)cc1 | > 99.5 µM
75 | CCOc1ccc([C@@H](NC(=O)OCc2ccccc2)C(=O)Nc2cccc(CN)c2)cc1 | > 99.5 µM
76 | O=C(c1cc(Cl)ccc1NS(=O)(=O)c1ccc(Oc2ccccc2Cl)cc1)N1CCC[C@@H]1CO | > 99.5 µM
77 | c1cnc2c(CN3CCC(c4c[nH]c5cccnc45)CC3)c[nH]c2c1 | 44.4 µM
78 | NCc1cccc(NC(=O)[C@@H](NC(=O)OCc2ccccc2)c2cccc(F)c2F)c1 | > 99.5 µM

Row | Compound | IC50
79 | O=c1c(N2CC[C@H](CO)C2)nccn1C1CC1 | > 99.5 µM
80 | c1cc(C2CCN(Cc3c[nH]c4ccccc34)CC2)c2ccncc2c1 | 24.6 µM
81 | O=C(O)c1cc(Cl)ccc1NCc1ccc(Oc2ccccc2Cl)cc1 | > 99.5 µM
82 | N[C@H]1CC[C@@H](NC(=O)[C@@H](NC(=O)OCc2ccccc2)c2ccc(OCc3ccccc3)cc2)C1 | > 99.5 µM
83 | CN(CCS(N)(=O)=O)C(=O)c1cc(Cl)ccc1NS(=O)(=O)c1ccc(Oc2ccccc2Cl)cc1 | > 99.5 µM
84 | COc1ccc(S(=O)(=O)Nc2ccc(Cl)cc2C(=O)O)cc1 | > 99.5 µM
85 | NCc1cccc(NC(=O)c2ccc(OCc3ccccc3)cc2)c1 | > 99.5 µM
86 | O=C(c1cc(Cl)ccc1NS(=O)(=O)c1ccc(Oc2ccccc2Cl)cc1)N1CCC[C@H](O)C1 | > 99.5 µM
87 | N#CC1(c2ccccc2)CCN(Cc2c[nH]c3ccccc23)CC1 | > 99.5 µM
88 | NC1(c2cccc(NC(=O)[C@@H](NC(=O)OCc3ccccc3)c3ccc(OCc4ccccc4)cc3)c2)CCC1 | > 99.5 µM
89 | CCn1ccnc(N[C@@H](Cc2c[nH]c3ccccc23)C(N)=O)c1=O | > 99.5 µM
90 | O=C(O)c1ccn(C2CCN(Cc3c[nH]c4ccccc34)CC2)n1 | > 99.5 µM
91 | NCc1cccc(NC(=O)[C@H]2COC3(CCOCC3)N2C(=O)OCc2ccccc2)c1 | > 99.5 µM
92 | CNC(=O)c1cc(Cl)c(F)cc1NS(=O)(=O)c1ccc(Oc2ccccc2Cl)cc1 | 37.9 µM
93 | NCc1cccc(NC(=O)[C@@H](NC(=O)OCc2ccccc2)c2ccc(Cl)cc2)c1 | > 99.5 µM
94 | FC(F)(F)c1ccccc1C1CCN(Cc2c[nH]c3ccccc23)CC1 | > 99.5 µM
95 | c1ccc2oc(C3CCN(Cc4c[nH]c5ccccc45)CC3)nc2c1 | 60.6 µM
96 | NCc1cccc(NC(=O)Cc2ccc(OCc3ccccc3)cc2)c1 | > 99.5 µM
97 | NCc1cccc(NC(=O)[C@@H](Cc2c[nH]c3ccccc23)NC(=O)OCc2ccccc2)c1 | > 99.5 µM
98 | c1ccc2c(CN3CCC(n4cccn4)CC3)c[nH]c2c1 | > 99.5 µM
99 | NS(=O)(=O)c1ccc(C2CCN(Cc3c[nH]c4ccccc34)CC2)cc1 | 26.4 µM
100 | O=C(N[C@@H](C(=O)N[C@H]1CCCNC1)c1ccc(OCc2ccccc2)cc1)OCc1ccccc1 | > 99.5 µM
101 | CCn1ccnc(N(C)[C@@H](CO)Cc2c[nH]c3ccccc23)c1=O | > 99.5 µM
102 | NCc1ccc2c(c1)N(C(=O)[C@@H](NC(=O)OCc1ccccc1)c1ccc(OCc3ccccc3)cc1)CC2 | 12.3 µM
103 | c1ccc2c(CN3CCCCC3)c[nH]c2c1 | > 99.5 µM
